This note sets out measurements from patent US12528815B2, “5-amino-8-(4-pyridyl)-[1,2,4]triazolo[4,3-c]pyrimidin-3-one compounds for use against cancer” (Nxera Pharma UK Limited, priority 2020, dated 2026).

Assay [1] deals with T1, human adenosine A2A receptor (Homo sapiens, UniProt P29274).
T1 construct: expressed in transfected cells; host or cells: HEK293 cells infected with BacMam
In words: Inhibition binding assay, human adenosine A2A receptor membranes, [3H]ZM241385. The conditions noted are these: 1 nM [3H]ZM241385, HEK293-hA2A membranes, 25° C., 1 h; IC50 converted to Ki with Cheng-Prusoff; read-out: A2A pKi (converted). Here is the method: (§1) Inhibition binding assays were performed using 0.2 μg of membranes prepared from HEK293 cells infected with BacMam human adenosine A2A receptor or 1.4 μg of membranes prepared from HEK293 cells infected with BacMam human adenosine A1 receptor. Membranes were incubated in 50 mM Tris-HCl (HEK293-hA2A; pH 7.4) or 50 mM Tris-HCl, 100 mM NaCl, 10 mM MgCl2 (CHO-hA1; pH 7.4) in the presence of varying concentrations of test compound and 1 nM [^3H]ZM241385 (HEK293-hA2A) or [^3H]DPCPX (CHO-hA1) at 25° C. for 1 h. The assay was then terminated by rapid filtration onto GF/B grade Unifilter plates using a TomTec cell harvester, followed by 5×0.5 ml washes with ddH2O. Nonspecific binding was defined in the presence of 1 μM CGS15943 (HEK293-hA2A) or 1 μM DPCPX (CHO-hA1). Bound radioactivity was determined by liquid scintillation counting and inhibition curves were analysed using a four-parameter logistic equation. IC50 values were converted to Ki values with the Cheng-Prusoff equation using a KD value derived from saturation binding studies.

Assay [2] deals with T2, human adenosine A1 receptor (Homo sapiens, UniProt P30542).
T2 construct: expressed in transfected cells; host or cells: HEK293 cells infected with BacMam (the same paragraph also labels the preparation CHO-hA1)
T2 sequence (P30542 1-326): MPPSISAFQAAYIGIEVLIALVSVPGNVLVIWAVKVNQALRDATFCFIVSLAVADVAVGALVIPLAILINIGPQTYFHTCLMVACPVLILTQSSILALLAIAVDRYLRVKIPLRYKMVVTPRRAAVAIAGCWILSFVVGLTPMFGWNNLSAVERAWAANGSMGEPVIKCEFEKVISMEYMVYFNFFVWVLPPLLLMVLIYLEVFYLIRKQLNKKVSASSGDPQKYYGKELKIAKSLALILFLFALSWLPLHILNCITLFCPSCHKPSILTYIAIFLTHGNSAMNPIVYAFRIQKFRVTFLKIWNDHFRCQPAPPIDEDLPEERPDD
In words: Inhibition binding assay, human adenosine A1 receptor membranes, [3H]DPCPX. The conditions noted are these: 1 nM [3H]DPCPX, 25° C., 1 h; IC50 converted to Ki with Cheng-Prusoff; read-out: A1 pKi (converted). The procedure: as §1

Each structure is given as a SMILES string.

T1 sequence (P29274 whole entry): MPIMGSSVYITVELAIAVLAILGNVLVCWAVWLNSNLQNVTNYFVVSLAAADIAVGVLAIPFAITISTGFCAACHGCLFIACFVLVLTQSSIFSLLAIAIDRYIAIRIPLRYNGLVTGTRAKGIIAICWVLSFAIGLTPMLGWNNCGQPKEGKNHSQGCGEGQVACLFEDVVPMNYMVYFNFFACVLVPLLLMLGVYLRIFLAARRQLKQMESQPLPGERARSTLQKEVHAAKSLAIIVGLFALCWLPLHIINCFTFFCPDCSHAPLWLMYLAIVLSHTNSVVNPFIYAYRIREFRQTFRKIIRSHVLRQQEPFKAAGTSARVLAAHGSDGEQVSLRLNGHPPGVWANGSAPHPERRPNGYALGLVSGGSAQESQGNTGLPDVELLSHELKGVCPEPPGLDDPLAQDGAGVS

In the case of `Cc1cc(-c2c(-c3ccccc3)nc(N)n3c(=O)n(Cc4cccc(=O)[nH]4)nc23)cc(C)n1` [Example 1-9, 5-amino-8-(2,6-dimethyl-4-pyridyl)-2-[(6-oxo-1H-pyridin-2-yl)methyl]-7-phenyl-[1,2,4]triazolo[4,3-c]pyrimidin-3-one], the Ki in assay [1] was 12.6 nM; in assay [2], 126 nM.
Consider `Cc1cc(-c2c(-c3ccccc3)nc(N)n3c(=O)n(Cc4ccc(F)c(=O)n4C)nc23)cc(C)n1` [Example 1-10, 5-amino-8-(2,6-dimethyl-4-pyridyl)-2-[(5-fluoro-1-methyl-6-oxo-2-pyridyl)methyl]-7-phenyl-[1,2,4]triazolo[4,3-c]pyrimidin-3-one], for which the Ki in assay [1] was 20 nM; in assay [2], 794 nM.
Consider `Cc1cc(-c2c(-c3ccccc3)nc(N)n3c(=O)n(Cc4ccncc4)nc23)cc(C)n1` [Example 1-12, 5-amino-8-(2,6-dimethyl-4-pyridyl)-7-phenyl-2-(4-pyridylmethyl)-[1,2,4]triazolo[4,3-c]pyrimidin-3-one], for which the results for the Ki in assay [1] and in assay [2] were 10 nM and 794 nM, respectively.
In the case of `Cc1cc(-c2c(-c3ccccc3)nc(N)n3c(=O)n(C4CSCc5ccccc54)nc23)cc(C)n1` (stereo not shown) [Example 1-13, 5-amino-8-(2,6-dimethyl-4-pyridyl)-2-isothiochroman-4-yl-7-phenyl-[1,2,4]triazolo[4,3-c]pyrimidin-3-one], the values for the Ki in assay [1] and in assay [2] were 1.26 nM and 158 nM, respectively.
Consider `Cc1cc(-c2c(-c3ccccc3)nc(N)n3c(=O)n([C@@H]4CCCc5ccc(F)cc54)nc23)cc(C)n1` [Example 1-14, (R)-5-amino-8-(2,6-dimethyl-4-pyridyl)-2-(7-fluorotetralin-1-yl)-7-phenyl-[1,2,4]triazolo[4,3-c]pyrimidin-3-one], for which the figures for the Ki in assay [1] and in assay [2] were 3.16 nM and 20 nM, respectively.
Consider `Cc1cc(-c2c(-c3ccccc3)nc(N)n3c(=O)n(C(C)c4cc(F)ccc4F)nc23)cc(C)n1` (stereo not shown) [Example 1-15, 5-amino-2-[1-(2,5-difluorophenyl)ethyl]-8-(2,6-dimethyl-4-pyridyl)-7-phenyl-[1,2,4]triazolo[4,3-c]pyrimidin-3-one], for which the Ki in assay [1] was 1.58 nM; in assay [2] it was 79.4 nM.
`Cc1cc(-c2c(-c3ccccc3)nc(N)n3c(=O)n(Cc4ccccc4SC(F)F)nc23)cc(C)n1` [Example 1-16, 5-amino-2-[[2-(difluoromethylsulfanyl)phenyl]methyl]-8-(2,6-dimethyl-4-pyridyl)-7-phenyl-[1,2,4]triazolo[4,3-c]pyrimidin-3-one]: the Ki in assay [1] is 0.251 nM; in assay [2], 1 nM.
As to `Cc1cc(-c2c(-c3ccccc3)nc(N)n3c(=O)n(Cc4ccccc4C)nc23)cc(C)n1` [Example 1-17, 5-amino-8-(2,6-dimethyl-4-pyridyl)-2-(o-tolylmethyl)-7-phenyl-[1,2,4]triazolo[4,3-c]pyrimidin-3-one], the Ki in assay [1] was 0.316 nM; in assay [2], 1 nM.
Consider `Cc1cc(-c2c(-c3ccccc3)nc(N)n3c(=O)n(Cc4ccc(F)cc4C)nc23)cc(C)n1` [Example 1-18, 5-amino-8-(2,6-dimethyl-4-pyridyl)-2-[(4-fluoro-2-methyl-phenyl)methyl]-7-phenyl-[1,2,4]triazolo[4,3-c]pyrimidin-3-one], for which the Ki was 0.0794 nM in assay [1] and 10 nM in assay [2].
Regarding `Cc1cc(-c2c(-c3ccccc3)nc(N)n3c(=O)n(Cc4cccnc4-n4cccn4)nc23)cc(C)n1` [Example 1-19, 5-amino-8-(2,6-dimethyl-4-pyridyl)-7-phenyl-2-[(2-pyrazol-1-yl-3-pyridyl)methyl]-[1,2,4]triazolo[4,3-c]pyrimidin-3-one], the Ki in assay [1] was 1.26 nM; in assay [2], 100 nM.
The like results for `Cc1cc(-c2c(-c3ccccc3)nc(N)n3c(=O)n(C(C)c4ccccn4)nc23)cc(C)n1` (stereo not shown) [Example 1-20, 5-amino-8-(2,6-dimethyl-4-pyridyl)-7-phenyl-2-[1-(2-pyridyl)ethyl]-[1,2,4]triazolo[4,3-c]pyrimidin-3-one] were, in that order, 12.6 nM and 316 nM.
On to `Cc1cc(-c2c(-c3ccccc3)nc(N)n3c(=O)n(Cc4cccc(F)c4Cl)nc23)cc(C)n1` [Example 1-21, 5-amino-2-[(2-chloro-3-fluoro-phenyl)methyl]-8-(2,6-dimethyl-4-pyridyl)-7-phenyl-[1,2,4]triazolo[4,3-c]pyrimidin-3-one], for which the Ki in assay [1] is 0.501 nM; in assay [2], 10 nM.
Regarding `Cc1cc(-c2c(-c3ccccc3)nc(N)n3c(=O)n(Cc4ccccc4OCC4CC4)nc23)cc(C)n1` [Example 1-22, 5-amino-2-[[2-(cyclopropylmethoxy)phenyl]methyl]-8-(2,6-dimethyl-4-pyridyl)-7-phenyl-[1,2,4]triazolo[4,3-c]pyrimidin-3-one], the values for the Ki in assay [1] and in assay [2] were 0.158 nM and 2 nM, respectively.
Regarding `Cc1cc(-c2c(-c3ccccc3)nc(N)n3c(=O)n(Cc4c(F)cccc4F)nc23)cc(C)n1` [Example 1-23, 5-amino-2-[(2,6-difluorophenyl)methyl]-8-(2,6-dimethyl-4-pyridyl)-7-phenyl-[1,2,4]triazolo[4,3-c]pyrimidin-3-one], the Ki in assay [1] was 0.1 nM; in assay [2], 3.16 nM.
For the compound `Cc1cc(-c2c(-c3ccccc3)nc(N)n3c(=O)n(Cc4ccccc4CN(C)C)nc23)cc(C)n1` [Example 1-24, 5-amino-2-[[2-[(dimethylamino)methyl]phenyl]methyl]-8-(2,6-dimethyl-4-pyridyl)-7-phenyl-[1,2,4]triazolo[4,3-c]pyrimidin-3-one], the Ki is 0.126 nM in assay [1] and 15.8 nM in assay [2].
In the case of `CCOc1ccccc1Cn1nc2c(-c3cc(C)nc(C)c3)c(-c3ccccc3)nc(N)n2c1=O` [Example 1-25, 5-amino-8-(2,6-dimethyl-4-pyridyl)-2-[(2-ethoxyphenyl)methyl]-7-phenyl-[1,2,4]triazolo[4,3-c]pyrimidin-3-one], the Ki in assay [1] was 0.2 nM; in assay [2], 6.31 nM.
With `Cc1cc(-c2c(-c3ccccc3)nc(N)n3c(=O)n([C@H](C)c4ccncc4)nc23)cc(C)n1` [Example 1-26, (R)-5-amino-8-(2,6-dimethyl-4-pyridyl)-7-phenyl-2-[1-(4-pyridyl)ethyl]-[1,2,4]triazolo[4,3-c]pyrimidin-3-one], the results for the Ki in assay [1] and in assay [2] were 15.8 nM and 794 nM, respectively.
As for `Cc1cc(-c2c(-c3ccccc3)nc(N)n3c(=O)n(C(C)c4cccnc4)nc23)cc(C)n1` (stereo not shown) [Example 1-27, 5-amino-8-(2,6-dimethyl-4-pyridyl)-7-phenyl-2-[1-(3-pyridyl)ethyl]-[1,2,4]triazolo[4,3-c]pyrimidin-3-one], the figures for the Ki in assay [1] and in assay [2] were 10 nM and 251 nM, respectively.
The like results for `COc1ncccc1Cn1nc2c(-c3cc(C)nc(C)c3)c(-c3ccccc3)nc(N)n2c1=O` [Example 1-28, 5-amino-8-(2,6-dimethyl-4-pyridyl)-2-[(2-methoxy-3-pyridyl)methyl]-7-phenyl-[1,2,4]triazolo[4,3-c]pyrimidin-3-one] were, in that order, 0.2 nM and 63.1 nM.
On to `COc1cc(C)nc(Cn2nc3c(-c4cc(C)nc(C)c4)c(-c4ccccc4)nc(N)n3c2=O)c1` [Example 1-29, 5-amino-8-(2,6-dimethyl-4-pyridyl)-2-[(4-methoxy-6-methyl-2-pyridyl)methyl]-7-phenyl-[1,2,4]triazolo[4,3-c]pyrimidin-3-one], for which the results for the Ki in assay [1] and in assay [2] were 0.501 nM and 12.6 nM, respectively.
Turning to `Cc1cc(-c2c(-c3ccccc3)nc(N)n3c(=O)n(Cc4ccccc4C4CCNCC4)nc23)cc(C)n1` [Example 1-30, 5-amino-8-(2,6-dimethyl-4-pyridyl)-7-phenyl-2-[[2-(4-piperidyl)phenyl]methyl]-[1,2,4]triazolo[4,3-c]pyrimidin-3-one], the Ki in assay [1] was 0.501 nM; in assay [2], 39.8 nM.
On to `Cc1cc(-c2c(-c3ccccc3)nc(N)n3c(=O)n(C(CNCC(F)(F)F)c4ccccc4)nc23)cc(C)n1` (stereo not shown) [Example 1-31, 5-amino-8-(2,6-dimethyl-4-pyridyl)-7-phenyl-2-[1-phenyl-2-(2,2,2-trifluoroethylamino)ethyl]-[1,2,4]triazolo[4,3-c]pyrimidin-3-one], for which the Ki in assay [1] is 10 nM; in assay [2], 316 nM.
`Cc1cc(-c2c(-c3ccccc3)nc(N)n3c(=O)n(Cc4ccccc4CC4CCNCC4)nc23)cc(C)n1` [Example 1-32, 5-amino-8-(2,6-dimethyl-4-pyridyl)-7-phenyl-2-[[2-(4-piperidylmethyl)phenyl]methyl]-[1,2,4]triazolo[4,3-c]pyrimidin-3-one]: the Ki is 0.126 nM in assay [1] and 3.98 nM in assay [2].
